Patent publication US12528778B2, “Microbiocidal derivatives” (SYNGENTA CROP PROTECTION AG, priority 2019, dated 2026)

Experiments:
[1] = test system: Monographella nivalis (Microdochium nivale); assay: Monographella nivalis (Microdochium nivale) / liquid culture (foot rot cereals); type: cell-based; details: PDB liquid culture, 24° C., growth inhibition determined photometrically 4-5 days after application, vs untreated control
Experimental: (§1) Example B5: Monographella nivalis (Microdochium nivale)/Liquid Culture (Foot Rot Cereals) Conidia of the fungus from cryogenic storage are directly mixed into nutrient broth (PDB potato dextrose broth). After placing a (DMSO) solution of test compound into a microtiter plate (96-well format), the nutrient broth containing the fungal spores is added. The test plates are incubated at 24° C. and the inhibition of growth is determined photometrically 4-5 days after application. […] […]-49, and P-50.

[2] = test system: Mycosphaerella arachidis (Cercospora arachidicola); assay: Mycosphaerella arachidis (Cercospora arachidicola) / liquid culture (early leaf spot); type: cell-based; details: PDB liquid culture, 24° C., growth inhibition determined photometrically 4-5 days after application, vs untreated control
Experimental: Example B6: Mycosphaerella arachidis (Cercospora arachidicola)/Liquid Culture (Early Leaf Spot) Conidia of the fungus from cryogenic storage are directly mixed into nutrient broth (PDB potato dextrose broth). After placing a (DMSO) solution of test compound into a microtiter plate (96-well format), the nutrient broth containing the fungal spores is added. The test plates are incubated at 24° C. and the inhibition of growth is determined photometrically 4-5 days after application. […] […]-44, and P-48.

[3] = test system: Blumeria graminis f. sp. tritici (Erysiphe graminis f. sp. tritici); assay: Blumeria graminis f. sp. tritici / wheat / leaf disc preventative (powdery mildew on wheat); type: in vivo; details: foliar, wheat leaf segments cv. Kanzler, inoculated 1 day after application, assessed 6-8 days after application, vs untreated control
Experimental: Example B3: Blumeria graminis f. sp. tritici (Erysiphe graminis f. so. tritici)/Wheat/Leaf Disc Preventative (Powdery Mildew on Wheat) Wheat leaf segments cv. Kanzler are placed on agar in a multiwell plate (24-well format) and sprayed with the formulated test compound diluted in water. The leaf disks are inoculated by shaking powdery mildew infected plants above the test plates 1 day after application. The inoculated leaf disks are incubated at 20°° C. and 60% rh under a light regime of 24 h darkness followed by 12 h light/12 h darkness in a climate chamber and the activity of a compound is assessed as percent disease control compared to untreated when an appropriate level of disease damage appears on untreated check leaf segments (6-8 days after application). […]-45, and P-50.

Alternaria solani = Alternaria solani / tomato / leaf disc (early blight); type: in vivo; details: foliar, tomato leaf disks cv. Baby, inoculated 2 days after application, assessed 5-7 days after application, vs untreated control
Experimental: Example B1: Alternaria solani/Tomato/Leaf Disc (Early Blight) Tomato leaf disks cv. Baby are placed on agar in multiwell plates (24-well format) and sprayed with the formulated test compound diluted in water. The leaf disks are inoculated with a spore suspension of the fungus 2 days after application. The inoculated leaf disks are incubated at 23° C./21° C. […] […]-43, and P-44.

[4] = test system: Mycosphaerella graminicola (Septoria tritici); assay: Mycosphaerella graminicola (Septoria tritici) / liquid culture (Septoria blotch); type: cell-based; details: Zymoseptoria tritici, PDB liquid culture, 24° C., growth inhibition determined photometrically 4-5 days after application, vs untreated control
Experimental: Example B12: Mycosphaerella graminicola (Septoria tritici)/Liquid Culture (Septoria Blotch) Conidia of the fungus from cryogenic storage are directly mixed into nutrient broth (PDB potato dextrose broth). After placing a (DMSO) solution of test compound into a microtiter plate (96-well format), the nutrient broth containing the fungal spores is added. The test plates are incubated at 24° C. and the inhibition of growth is determined photometrically 4-5 days after application. […] […]-48, and P-49.

[5] = test system: Glomerella lagenarium (Colletotrichum lagenarium); assay: Glomerella lagenarium (Colletotrichum lagenarium) / liquid culture (anthracnose); type: cell-based; details: Colletotrichum orbiculare, PDB liquid culture, 24° C., growth inhibition measured photometrically 3-4 days after application, vs untreated control
Experimental: as §1, with “B2: Glomerella lagenarium (Colletotrichum lagenarium)/Liquid” for “B5: Monographella nivalis (Microdochium nivale)/Liquid”, “(Anthracnose)” for “(Foot Rot Cereals)”, “measured” for “determined”, “3-4” for “4-5”

[6] = test system: Puccinia recondita f. sp. tritici; assay: Puccinia recondita f. sp. tritici / wheat / leaf disc preventative (brown rust); type: in vivo; details: foliar, wheat leaf segments cv. Kanzler, inoculated 1 day after application, assessed 7-9 days after application, vs untreated control
Experimental: Example B8: Puccinia recondita f. sp. tritici/Wheat/Leaf Disc Preventative (Brown rust) Wheat leaf segments cv. Kanzler are placed on agar in multiwell plates (24-well format) and sprayed with the formulated test compound diluted in water. The leaf disks are inoculated with a spore suspension of the fungus 1 day after application. The inoculated leaf segments are incubated at 19° C. and 75% rh under a light regime of 12 h light/12 h darkness in a climate cabinet and the activity of a compound is assessed as percent disease control compared to untreated when an appropriate level of disease damage appears in untreated check leaf segments (7-9 days after application).

[7] = test system: Magnaporthe grisea (Pyricularia oryzae); assay: whole plant or invertebrate; type: in vivo; details: foliar, read-out: control of Magnaporthe grisea
[8] = test system: Botryotinia fuckeliana (Botrytis cinerea); assay: Botryotinia fuckeliana (Botrytis cinerea) / liquid culture (gray mould); type: cell-based; details: 20 ppm; Vogels broth liquid culture, 24° C., growth inhibition determined photometrically 3-4 days after application; vs untreated control
Experimental: Example B13: Botryotinia fucleliana (Botrytis cinerea)/Liquid Culture (Gray Mould) Conidia of the fungus from cryogenic storage are directly mixed into nutrient broth (Vogels broth). After placing a (DMSO) solution of test compound into a microtiler plate (96-well format), the nutrient broth containing the fungal spores is added. The test plates are incubated at 24° C. and the inhibition of growth is determined photometrically 3-4 days after application. […] P-25.

Row | Structure (SMILES) | inhibition of growth at 20 ppm [1] | inhibition of growth at 20 ppm [2] | pest or weed control at 200 ppm [3] | pest or weed control at 200 ppm (Alternaria solani) | inhibition of growth at 20 ppm [4] | inhibition of growth at 20 ppm [5] | pest or weed control at 200 ppm [6] | pest or weed control at 200 ppm [7] | control of Botryotinia fuckeliana [8]
1 | COc1ncc(Nc2ccccc2)nc1C(=O)NC1CCC1(C)C (stereo not shown) [Compound P-4, 6-anilino-N-(2,2-dimethylcyclobutyl)-3-methoxy-pyrazine-2-carboxamide] | ≥ 80% | ≥ 80% | ≥ 80% | ≥ 80% | ≥ 80% | ≥ 80% | ≥ 80% |  | 
2 | COc1ncc(Nc2cccc(F)c2)nc1C(=O)NC1CCC1(C)C (stereo not shown) [Compound P-5, N-(2.2-dimethylcyclobutyl)-6-(3-fluoroanilino)-3-methoxy-pyrazine-2-carboxamide] | ≥ 80% | ≥ 80% | ≥ 80% | ≥ 80% | ≥ 80% | ≥ 80% | ≥ 80% | ≥ 80% | 
3 | COc1ncc(NCC2CC2)nc1C(=O)NC1CCC1(C)C (stereo not shown) [Compound P-9, 6-(cyclopropylmethylamino)-N-(2,2-dimethylcyclobutyl)-3-methoxy-pyrazine-2-carboxamide] | ≥ 80% | ≥ 80% | ≥ 80% | ≥ 80% | ≥ 80% | ≥ 80% | ≥ 80% |  | 
4 | COc1ncc(Nc2cc(F)cc(F)c2)nc1C(=O)NC1COC2(CC2)C1 (stereo not shown) [Compound P-20, 6-(3,5-difluoroanilino)-3-methoxy-N-(4-oxaspiro[2.4]heptan-6-yl)pyrazine-2-carboxamide] | ≥ 80% | ≥ 80% | ≥ 80% | ≥ 80% | ≥ 80% | ≥ 80% | ≥ 80% | ≥ 80% | 
5 | COc1ncc(Nc2cc(F)cc(F)c2)nc1C(=O)NCC1(C)CCOC2(CCC2)C1 (stereo not shown) [Compound P-22, 6-(3,5-difluoroanilino)-3-methoxy-N-[(8-methyl-5-oxaspiro[3.5]nonan-8-yl)methyl]pyrazine-2-carboxamide] | ≥ 80% | ≥ 80% | ≥ 80% | ≥ 80% | ≥ 80% | ≥ 80% | ≥ 80% | ≥ 80% | 
6 | COc1ncc(Nc2cc(F)cc(F)c2)nc1C(=O)NCC1(C(F)(F)F)CC1 [Compound P-25, 6-(3,5-difluoroanilino)-3-methoxy-N-[[1-(trifluoromethyl)cyclopropyl]methyl] pyrazine-2-carboxamide] | ≥ 80% | ≥ 80% | ≥ 80% | ≥ 80% | ≥ 80% | ≥ 80% | ≥ 80% | ≥ 80% | at least 80%
7 | COc1ncc(Nc2cc(F)cc(F)c2)nc1C(=O)NCc1cccc2c1OC(F)(F)O2 [Compound P-29, 6-(3,5-difluoroanilino)-N-[(2,2-difluoro-1.3-benzodioxol-4-yl)methyl]-3-methoxy-pyrazine-2-carboxamide] | ≥ 80% | ≥ 80% |  |  | ≥ 80% | ≥ 80% | ≥ 80% | ≥ 80% | 
8 | COc1ncc(Nc2cc(F)nc(F)c2)nc1C(=O)NCC1(C)CCOC2(CCC2)C1 (stereo not shown) [Compound P-34] |  |  |  |  |  | ≥ 80% | ≥ 80% | ≥ 80% | 
9 | COc1ncc(Nc2cc(F)cc(F)c2)nc1C(=O)NC1(C)CC1 [Compound P-37, 6-(3,5-difluoroanilino)-3-methoxy-N-(1-methylcyclopropyl) pyrazine-2-carboxamide] | ≥ 80% |  | ≥ 80% | ≥ 80% | ≥ 80% | ≥ 80% | ≥ 80% | ≥ 80% | 
10 | COc1ncc(Nc2cc(F)cc(F)c2)nc1C(=O)NC(C)(C)C [Compound P-38, N-tert-butyl-6-(3,5-difluoroanilino)-3-methoxy-pyrazine-2-carboxamide] | ≥ 80% | ≥ 80% | ≥ 80% | ≥ 80% | ≥ 80% | ≥ 80% | ≥ 80% | ≥ 80% | 
11 | COc1ncc(Nc2cc(F)cc(F)c2)nc1C(=O)NCC(C)(C)C [Compound P-39, 6-(3,5-difluoroanilino)-N-(2,2-dimethylpropyl)-3-methoxy-pyrazine-2-carboxamide] | ≥ 80% | ≥ 80% | ≥ 80% | ≥ 80% | ≥ 80% | ≥ 80% | ≥ 80% | ≥ 80% | 
12 | COc1ncc(Nc2cc(F)cc(F)c2)nc1C(=O)NC(C)CCCC(C)C (stereo not shown) [Compound P-40, 6-(3,5-difluoroanilino)-N-(1,5-dimethylhexyl)-3-methoxy-pyrazine-2-carboxamide] | ≥ 80% | ≥ 80% | ≥ 80% |  | ≥ 80% | ≥ 80% | ≥ 80% | ≥ 80% | 
13 | COc1ncc(Nc2cc(F)cc(F)c2)nc1C(=O)NC1CCC1(C)C (stereo not shown) [Compound P-43, 6-(3,5-difluoroanilino)-N-(2,2-dimethylcyclobutyl)-3-methoxy-pyrazine-2-carboxamide] | ≥ 80% | ≥ 80% | ≥ 80% | ≥ 80% | ≥ 80% | ≥ 80% | ≥ 80% | ≥ 80% | 
